One molecule from patent US20070218475A1, “Efficient drug screening for protein targets” (priority 2005, published 2007) can be followed below.

For one assay, the target named is Shh signaling. In words: Shh-LIGHT2 assay for Hh pathway activation (Gli-dependent luciferase reporter). Format: cell-based, mouse. Particulars: Shh-LIGHT2 mouse cultured cell assay; read-out: IC50, inhibition of Shh signaling. Background: Reporter assays use an easily measured gene product as a stand-in for the process of interest.
The target in another assay is T1, Smo (Mus musculus, UniProt P56726).
T1 construct: expressed in transfected cells; host or cells: Cos-1
T1 sequence (P56726 33-793): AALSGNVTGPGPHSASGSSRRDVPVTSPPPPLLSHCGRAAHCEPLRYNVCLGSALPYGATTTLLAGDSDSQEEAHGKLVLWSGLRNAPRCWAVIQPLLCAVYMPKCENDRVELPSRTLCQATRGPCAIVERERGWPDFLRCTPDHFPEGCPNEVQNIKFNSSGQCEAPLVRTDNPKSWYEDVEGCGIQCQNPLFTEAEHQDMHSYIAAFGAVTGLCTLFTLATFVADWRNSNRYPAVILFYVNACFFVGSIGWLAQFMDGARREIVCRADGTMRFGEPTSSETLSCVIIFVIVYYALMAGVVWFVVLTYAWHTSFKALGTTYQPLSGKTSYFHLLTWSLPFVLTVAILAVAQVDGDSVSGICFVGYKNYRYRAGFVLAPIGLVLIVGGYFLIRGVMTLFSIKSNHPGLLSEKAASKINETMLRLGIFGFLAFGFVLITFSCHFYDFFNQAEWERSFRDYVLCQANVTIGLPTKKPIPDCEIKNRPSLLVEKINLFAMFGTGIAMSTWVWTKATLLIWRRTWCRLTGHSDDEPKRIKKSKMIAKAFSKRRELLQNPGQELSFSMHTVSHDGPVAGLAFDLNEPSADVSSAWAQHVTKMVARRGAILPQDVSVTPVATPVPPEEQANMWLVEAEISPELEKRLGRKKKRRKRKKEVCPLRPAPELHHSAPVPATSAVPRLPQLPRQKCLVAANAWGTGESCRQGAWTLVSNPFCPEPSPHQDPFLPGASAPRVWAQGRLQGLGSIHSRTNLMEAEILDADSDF
The assay is described as follows: Fluorescence (BODIPY-cyclopamine) binding assay, Smo-expressing Cos-1 cells. Particulars: Cos-1 cells transiently transfected, fluorescence microscopy and flow cytometry. The method, then: (§1) For flow cytometry experiments, the cells were then trypsinized, collected by centrifugation, resuspended in phenol red-free DMEM containing 0.5% bovine calf serum, and analyzed for green fluorescence (FACScan, Beckton Dickinson). […] Curve fitting analysis was performed with Kaleidograph (Synergy Software).
On the technique in general: A flow cytometer gives signals particle by particle.

Another assay deals with T2, SmoA1 (Mus musculus, UniProt P56726, W539L).
T2 construct: expressed in transfected cells; host or cells: Cos-1
T2 sequence (P56726 33-793 W539L): as the sequence (P56726 33-793) above, with W507L counted along it
In words: Fluorescence (BODIPY-cyclopamine) binding assay, SmoA1-expressing Cos-1 cells. Conditions: flow cytometry. On the procedure: (§2) Fluorescence binding assay: Cos-1 cells were transfected in 6-well plates with the described expression vectors (1 μg/well), and after two days, incubated in DMEM containing 10% fetal bovine serum, 5 nM BODIPY-cyclopamine, and various concentrations of the indicated competitors for 4-6 h at 37° C. For flow cytometry experiments, the cells were then trypsinized, collected by centrifugation, resuspended in phenol red-free DMEM containing 0.5% bovine calf serum, and analyzed for green fluorescence (FACScan, Beckton Dickinson). A fluorescence intensity range that excludes non-transfected cells was then selected for quantification of specific BODIPY-cyclopamine binding (see brackets in FIGS. 2C, 2D, and 3A). Curve fitting analysis was performed with Kaleidograph (Synergy Software).

In another assay the target is T3, mouse Frizzled7 protein (Mus musculus, UniProt Q61090).
T3 construct: expressed in transfected cells; host or cells: Cos-1
In words: Fluorescence (BODIPY-cyclopamine) binding assay, Cos-1 cells expressing Frizzled7. Particulars: flow cytometry. On the procedure: as §2

For a further assay, the target named is T4, SmoΔCT (Mus musculus, UniProt P56726).
T4 construct: expressed in transfected cells; host or cells: Cos-1
T4 sequence (P56726 33-555 limits assumed): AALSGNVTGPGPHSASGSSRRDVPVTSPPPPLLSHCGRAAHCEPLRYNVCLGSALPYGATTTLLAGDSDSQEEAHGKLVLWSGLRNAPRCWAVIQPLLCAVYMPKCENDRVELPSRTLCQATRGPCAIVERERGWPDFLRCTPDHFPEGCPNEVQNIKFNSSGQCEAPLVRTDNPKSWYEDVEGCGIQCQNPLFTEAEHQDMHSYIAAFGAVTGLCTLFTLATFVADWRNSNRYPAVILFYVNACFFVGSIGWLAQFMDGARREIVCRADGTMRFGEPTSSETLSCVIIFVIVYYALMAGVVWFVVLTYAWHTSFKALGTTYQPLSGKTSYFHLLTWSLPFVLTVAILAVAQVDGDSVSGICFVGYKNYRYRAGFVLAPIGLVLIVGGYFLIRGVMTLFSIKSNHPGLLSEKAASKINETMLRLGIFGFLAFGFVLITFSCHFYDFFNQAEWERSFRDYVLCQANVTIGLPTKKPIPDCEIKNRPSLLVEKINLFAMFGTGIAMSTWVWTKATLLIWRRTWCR
In words: Fluorescence (BODIPY-cyclopamine) binding assay, Cos-1 cells expressing SmoΔCT. Conditions: Cos-1 cells, flow cytometry.
Source text: Preparation of Smo fusion proteins and deletion mutants: Both Smo-Myc3 and SmoA1-Myc3 are C-terminally fused to three consecutive Myc epitopes. […] Smo-GFP is comprised of green fluorescent protein fused to the C-terminus of Smo, and the fluorescent proteins in SmoA1-YFP, and SmoA1-GFP are similarly fused to the C-terminus of SmoA1. All constructs were generated by PCR and verified by DNA sequencing.
as §1

In the case of `CC1=C2CC3C(CC=C4C[C@@H](O)CCC43C)C2CCC12O[C@@H]1CC(C)CN(CCNC(=O)CCCCCNC(=O)CCC3=[N+]4C(=Cc5c(C)cc(C)n5[B-]4(F)F)C=C3)C1C2C` (some centres unmarked) [BODIPY-cyclopamine], the IC50 (usually the concentration needed to halve the response being measured) on Shh signaling worked out at 150 nM. Besides, on Smo, the “binding to Smo-expressing cells” value is on record as “bound with high capacity”. Also, the “binding to cells expressing SmoA1” value at SmoA1 was “did not bind”. In addition, on mouse Frizzled7 protein, the “binding to cells expressing mouse Frizzled7” value is listed as “did not bind”. The “binding to cells expressing SmoΔCT” value at SmoΔCT is reported as “can bind”.
